Reference: patent publication EP4603105A1, “PHARMACEUTICAL COMPOSITION CONTAINING CYCLIC COMPOUND HAVING SELECTIVE KRAS INHIBITORY EFFECT AGAINST HRAS AND NRAS” (CHUGAI SEIYAKU KABUSHIKI KAISHA, priority 2022, dated 2024)
Where a SMILES comes first, the peptide text is derived from it. Bridges are numbered along the chain shown (N, C = ends). [ ]: non-standard residue; d: D form. The star is where a group is joined. hPhe(3-Cl-4-CF3) = N[C@@H](CCc1ccc(C(F)(F)F)c(Cl)c1)C(=O)O; NPrPhe(4-CF3) = CCCN[C@@H](Cc1ccc(C(F)(F)F)cc1)C(=O)O; NMeGly(cPent) = CN[C@H](C(=O)O)C1CCCC1; NMeF = CN[C@@H](Cc1ccccc1)C(=O)O; NMeD = CN[C@@H](CC(=O)O)C(=O)O; NMeL = CN[C@@H](CC(C)C)C(=O)O; Morpholide = C1CN(*)CCO1; Ac5c = NC1(C(=O)O)CCCC1; Aze = O=C(O)[C@@H]1CCN1; Sar = CNCC(=O)O

Legend:
[1] = molecular target: GDP-bound KRAS wild-type protein (Homo sapiens, UniProt P01116); assay: Binding to KRAS by surface plasmon resonance (SPR), dissociation constant KD; conditions: 1:1 binding model
Sequence of GDP-bound KRAS wild-type protein (P01116 1-188 isoform P01116-2): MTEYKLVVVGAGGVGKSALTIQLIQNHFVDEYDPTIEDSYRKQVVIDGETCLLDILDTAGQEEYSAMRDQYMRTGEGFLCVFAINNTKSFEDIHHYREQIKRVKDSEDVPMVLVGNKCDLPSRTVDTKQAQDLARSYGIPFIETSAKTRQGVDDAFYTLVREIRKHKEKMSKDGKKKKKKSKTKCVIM
In short: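 Compound binding is evaluated by SPR single-cycle kinetics, with concentrations added intermittently from low to high for 75 s each. Target surfaces carry GDP-loaded biotinylated Avi-RAS at about 100–300 RU, regenerated after each cycle; temperature 30°C. A 1:1 binding model gives KD.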

HRAS wild-type protein = HRAS wild-type protein (Homo sapiens, UniProt P01112); assay: Binding to HRAS by surface plasmon resonance (SPR), KD and KD ratio to KRAS
Sequence of HRAS wild-type protein (P01112 whole entry): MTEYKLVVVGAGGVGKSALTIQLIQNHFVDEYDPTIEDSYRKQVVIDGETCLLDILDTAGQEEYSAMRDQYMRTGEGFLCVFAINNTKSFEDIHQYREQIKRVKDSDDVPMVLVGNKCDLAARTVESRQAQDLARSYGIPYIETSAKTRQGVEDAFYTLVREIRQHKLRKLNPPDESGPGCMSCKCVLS
In short: (§1)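 SPR, 30°C: Avi-biotin RAS·GDP captured via Biotin CAPture (~100–300 RU); running buffer HBS pH 7.4, 1 mM DTT, 10 mM MgCl2, 0.01% Tween 20, 10 µM GDP, 4% DMSO. Single-cycle kinetics, 100 µL/min, 75 s injections; 1:1 model → KD.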

[2] = tested on: human lung cancer strain NCI-H441; type: cell-based
In short: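 Proliferation was scored by […] measured after the reagent was added to cultures kept at 37°C in 5% carbon dioxide.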

[3] = molecular target: GDP-bound NRAS wild-type protein (Homo sapiens, UniProt P01111); assay: Binding to NRAS by surface plasmon resonance (SPR), KD and KD ratio to KRAS
Sequence of GDP-bound NRAS wild-type protein (P01111 whole entry): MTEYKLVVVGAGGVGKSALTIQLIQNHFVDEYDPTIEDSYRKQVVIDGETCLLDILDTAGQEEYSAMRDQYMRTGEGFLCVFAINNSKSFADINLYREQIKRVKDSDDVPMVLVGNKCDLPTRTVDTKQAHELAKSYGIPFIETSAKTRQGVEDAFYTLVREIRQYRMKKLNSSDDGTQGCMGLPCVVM
In short: as §1

[4] = ratio of KD value for HRAS wild-type protein to KD value for KRAS (SPR)
[5] = ratio of KD value for GDP-bound NRAS wild-type protein to KD value for KRAS (SPR)
[6] = ratio of the KD value with respect to HRAS wild-type protein to the KD value with respect to KRAS
[7] = ratio of the KD value with respect to GDP-bound NRAS wild-type protein to the KD value with respect to KRAS
[8] = ratio of KD for HRAS wild-type protein to KD for KRAS
[9] = ratio of KD for GDP-bound NRAS wild-type protein to KD for KRAS

SMILES | Kd ([1]; Single Cycle Kinetics) [nM] | IC50 [2] [nM] | Kd [1] [nM] | HRAS /KRAS (HRAS wild-type protein; [4]) | NRAS /KRAS [3, 5] | HRAS /KRAS (HRAS wild-type protein; [6]) | NRAS /KRAS [3, 7] | HRAS /KRAS (HRAS wild-type protein; [8]) | NRAS /KRAS [3, 9]
CC[C@H](C)[C@@H]1NC(=O)[C@H](CC(C)C)N(C)C(=O)C[C@@H](C(=O)N(C)C)N(C)C(=O)[C@H](C2CCCC2)N(C)C(=O)C2(CCCC2)NC(=O)[C@@H]2CCCN2C(=O)[C@H](CCc2ccc(C(F)(F)F)c(Cl)c2)NC(=O)CN(C)C(=O)[C@H](Cc2ccc(C)cc2)N2CC=CCOC[C@H](C2=O)N(C)C(=O)CN(C)C1=O [PP0629] | 2.4 | 45.1 |  |  |  | C (A compound having a KD ratio of 0.1 or more and less than 3 is denoted as C) | B (a compound having 3 or more and less than 10 is denoted as B) |  | 
CCCC[C@H]1C(=O)N[C@@H]([C@@H](C)CC)C(=O)N(C)CC(=O)N(C)[C@H]2C/C=C\CCN(C2=O)[C@@H](Cc2ccc(C(F)(F)F)cc2)C(=O)N(C)CC(=O)N[C@@H](CCc2ccc(C(F)(F)F)c(Cl)c2)C(=O)N2C[C@H](OCC)C[C@H]2C(=O)NC2(CCC2)C(=O)N(C)[C@@H](C2CCCC2)C(=O)N(C)[C@H](C(=O)N(C)CC)CC(=O)N1C [PP2841] |  | 8.3 | 0.086 |  |  |  |  | A (a compound having 10 or more and less than 20 is denoted as A) | A (a compound having 10 or more and less than 20 is denoted as A)
CCOC[C@H]1C(=O)N[C@@H]([C@@H](C)CC)C(=O)N(C2CC2)CC(=O)N(C)[C@H]2C/C=C\CCN(C2=O)[C@@H](CC2CCC(F)(F)CC2)C(=O)N(C)CC(=O)N[C@@H](CCc2ccc(C(F)(F)F)c(OC)c2)C(=O)N2C[C@H](OCC)C[C@H]2C(=O)N(C)C2(CCC2)C(=O)N(C)[C@@H](C(CC)CC)C(=O)N(C)[C@H](C(=O)N(C)C)CC(=O)N1C [PP2351] | 3.2 | 177 |  |  |  | A (a compound having 10 or more and less than 20 is denoted as A) | A (a compound having 10 or more and less than 20 is denoted as A) |  | 
CCCN1C(=O)[C@@H]2CCN2C(=O)[C@H](Cc2ccccc2)N(C)C(=O)[C@H]([C@@H](C)CC)NC(=O)[C@H](CC(C)C)N(C)C(=O)C[C@@H](C(=O)N2CCOCC2)N(C)C(=O)[C@H](C2CCCC2)N(C)C(=O)C2(CCCC2)NC(=O)[C@@H]2CCCN2C(=O)[C@H](CCc2ccc(C(F)(F)F)c(Cl)c2)NC(=O)CN(C)C(=O)[C@@H]1Cc1ccc(C(F)(F)F)cc1 [PP0209] ([NMeL]I[NMeF][Aze][NPrPhe(4-CF3)][Sar][hPhe(3-Cl-4-CF3)]P[Ac5c][NMeGly(cPent)][NMeD]-Morpholide; lactam N-11) |  | 569 | 110 |  |  |  |  | C (A compound having a KD ratio of 0.1 or more and less than 3 is denoted as C) | C (A compound having a KD ratio of 0.1 or more and less than 3 is denoted as C)
CCC[C@H]1C(=O)N[C@@H]([C@@H](C)CC)C(=O)N(C)CC(=O)N(C)[C@H]2C/C=C\CCN(C2=O)[C@@H](Cc2ccc(C(F)(F)F)cc2)C(=O)N(C)CC(=O)N[C@@H](CCc2ccc(C(F)(F)F)c(F)c2)C(=O)N2C[C@H](F)C[C@H]2C(=O)NC2(CC(C)(C)C2)C(=O)N(C)[C@@H](C2CCCCC2)C(=O)N(C)[C@H](C(=O)N(C)C)CC(=O)N1C [PP3122] |  | 11.1 | 0.4 |  |  |  |  | B (a compound having 3 or more and less than 10 is denoted as B) | A (a compound having 10 or more and less than 20 is denoted as A)

More lines, main results first:

Kd ([1]; Single Cycle Kinetics) [nM] | IC50 [2] [nM] | Kd [1] [nM] | SMILES | HRAS /KRAS (HRAS wild-type protein; [4]) | NRAS /KRAS [3, 5] | HRAS /KRAS (HRAS wild-type protein; [6]) | NRAS /KRAS [3, 7] | HRAS /KRAS (HRAS wild-type protein; [8]) | NRAS /KRAS [3, 9]
0.08 | 3.7 |  | CCO[C@@H]1C[C@H]2C(=O)NC3(CCC3)C(=O)N(C)[C@@H](C3CCCC3)C(=O)N(C)[C@H](C(=O)N(C)CC)CC(=O)N(C)[C@@H](CC(F)(F)F)C(=O)N[C@@H]([C@@H](C)CC)C(=O)N(C)CC(=O)N(C)[C@H]3C/C=C\CCN(C3=O)[C@@H](Cc3ccc(C(F)(F)F)cc3)C(=O)N(C)CC(=O)N[C@@H](CCc3cc(F)c(C(F)(F)F)c(F)c3)C(=O)N2C1 [PP1701] | A (a compound having 10 or more and less than 20 is denoted as A) | A (a compound having 10 or more and less than 20 is denoted as A) |  |  |  | 
0.58 | 142 |  | CCO[C@@H]1C[C@H]2C(=O)NC3(CCC3)C(=O)N(C)[C@@H](C3CCCC3)C(=O)N(C)[C@H](C)CC(=O)N(C)[C@@H](CC(C)C)C(=O)N[C@@H]([C@@H](C)CC)C(=O)N(C)CC(=O)N(C)[C@H]3C/C=C\CCN(C3=O)[C@@H](Cc3ccc(F)cc3)C(=O)N(C)CC(=O)N[C@@H](CCc3cc(F)c(C(F)(F)F)c(F)c3)C(=O)N2C1 [PP1494] | B (a compound having 3 or more and less than 10 is denoted as B) | B (a compound having 3 or more and less than 10 is denoted as B) |  |  |  | 
